Measurements as given in patent US20120237552A1, “Peptoid Agonists of Nerve Growth Factor and Their Use as Medicaments” (priority 2009, published 2012).
Entries after “also recorded” stand apart in the source; their conditions may differ.

Tests used:
C57BL/6 EAE mice = experiment: Experimental autoimmune encephalomyelitis (EAE) clinical score; type: in vivo; details: daily intraperitoneal, day 0 to day 25
Procedure: Trials were approved by the Parc Cientific de Barcelona Committee on Animal Care. Female C57BL/6 mice from Harlan (8-12 weeks old) were immunized subcutaneously in both hind pads with 300 μg of myelin oligodendrocyte glycoprotein (MOG) peptide 35-55 (Spikem, Firenze) emulsified with 50 μg of Mycobacterium tuberculosis (H37Ra strain; Difco, Detroit, Mich.) in incomplete Freund's adjuvant (IFA) as previously described (Adams et al. 2007). Mice were intraperitoneally injected with Pertussis toxin (Sigma)(500 ng) at the time of immunization and 2 days later. Animals were weighted and inspected for clinical signs of disease on a daily basis by a blinded observer. Disease severity of EAE was assessed according to the following scale: 0=normal; 0.5=mild limp tail; 1=limp tail; 2=mild parapesis of the hind limbs, unsteady gait; 3=moderate parapesis, voluntary movements still possible; 4=paraplegia or tetraparesis; 5=moribund state. Data shown for the clinical studies are representative of two independent experiments performed with the indicated number of animals (Moreno et al., 2006).
The agonist molecules selected for the animal studies, N35-4-8C, N6-4-17C and N35-4-17C, were prepared in water with 5% DMSO. Animals were treated with the agonist molecule (25, 50 and 100 mg/kg) or placebo (water+5% DMSO) through daily intraperitoneal injection starting after immunization. At the end of the study, mice were anesthetized and perfused intracardially with 4% of paraformaldehyde in 0.1M phosphate buffer (pH 7.6). Brains, spinal cords and spleens were dissected and either fixed or frozen until use. Serum was obtained from all animals included in the study, and transaminases levels were measured.
In order to evaluate the effects of the NGF-like peptoids “in vivo”, we studied the effect of the NGF-mimetic peptoids in the animal model of MS. C57BL/6 mice immunized with MOG35-55 peptide were treated daily with N35-4-8C, N6-4-17C and N35-4-17C intraperitoneally from day 0 to day 25 at a different concentrations of the compound. N35-4-8C was tested at 3 different concentrations selected in base to previous experiments using agonist molecules in animal models: 25 mg/kg, 50 mg/kg and 100 mg/kg. […] N35-4-17C was also tested at the same concentrations. […] Moreover, the treatment had higher clinical scores with a clear worsening in the progression of the disease (FIG. 4C).

[1] = test system: splenocytes isolated from naïve C57BL/6 mice; experiment: Splenocyte proliferation assay (MOG stimulated); type: cell-based; details: MOG 10 μg/ml, splenocytes cultured 2 hours with compound before MOG, p<0.05
Procedure: FIG. 6 depicts effects of N35-4-8C on the peripheral immune response during EAE. […] Splenocytes were cultured for 2 hours with N35-4-8C before MOG addition. Data are means±standard error. *p<0.05 with respect to cells treated with MOG only. FIG. 6B: Gene expression profile of cytokines and inducible nitric oxide synthase (iNOS) assayed by quantitative reverse transcriptase-polymerase chain reaction (RT-PCR) in the spleen of placebo and treated animals at the end of the experiment. Data are expressed as fold change in gene expression levels in the treated groups compared with untreated controls. *p<0.05. IFN=interferon; IL=interleukin; TNF=tumor necrosis factor.
Splenocytes from naïve, non immunized C57BL/6 mice were obtained for in vitro assessment of the effect of N35-4-8C in cell proliferation. Splenocyte proliferation assay was performed as described previously (Martinez-Forero et al., 2008).

In the case of `CC(C)CCN(CC(=O)N(CCCN1CCCC1=O)CC(N)=O)C(=O)CNCCc1ccccc1F` [N35-4-8C, [N-(2-(2′-Fluorophenyl)ethyl)glycyl]-[N-(3-methylbutyl)glycyl]-N-[3-(2′-oxopyrrolidinyl)propyl]glycinamide], the EAE clinical severity (C57BL/6 EAE mice; 25 mg/kg) was “no effect in disease clinical severity”, the EAE clinical severity (C57BL/6 EAE mice; 50 mg/kg) was “an effect but more moderate” and the EAE clinical severity (C57BL/6 EAE mice; 100 mg/kg) was “almost a complete prevention of EAE; also recorded: prevents EAE”. For the same compound, the “MOG specific proliferative response of splenocytes” value [1] was “significantly lower; also recorded: inhibits the proliferation of splenocytes”.
